`*C(=O)NC1CCCC(*)O1` (repeat unit) yielded a glass transition temperature of 145.00 °C.

Turning to `*C(=O)Nc1c(C)cc(C)c(NC(=O)c2ccc3c(c2)C(=O)N(c2c(C)cc(C)c(N4C(=O)c5ccc(*)cc5C4=O)c2C)C3=O)c1C` (repeat unit), the glass transition temperature came to 288.00 °C.

With `*C(=O)Nc1ccc(-c2ccc(NC(=O)c3ccc4c(c3)C(=O)N(c3c(C)cc(C)c(N5C(=O)c6ccc(*)cc6C5=O)c3C)C4=O)cc2C)c(C)c1` (repeat unit), the glass transition temperature was found to be 259.00 °C.

In turn, `*CC(F)(F)C(F)(F)C(F)(F)C(F)(F)COC(=O)NCC(F)(F)C(F)(F)C(F)(F)C(F)(F)CNC(=O)O*` (repeat unit) returned a glass transition temperature of 20.00 °C.

`*CC(F)(F)C(F)(F)COC(=O)NCC(F)(F)C(F)(F)C(F)(F)C(F)(F)CNC(=O)O*` (repeat unit): the glass transition temperature was 38.00 °C.

For `*CC1CCCC(CNC(=O)c2cccc(C(=O)N*)c2)C1` (repeat unit), the glass transition temperature is 180.00 °C.

For the compound `*CCCCCCCCCCOC(=O)Nc1ccc(C)c(NC(=O)O*)c1` (repeat unit), the glass transition temperature stood at 18.00 °C.

Compound `*CCCCCCCCCOC(=O)Nc1ccc(C)c(NC(=O)O*)c1` (repeat unit) yielded a glass transition temperature of 62.00 °C.

For `*CCCCCCCOC(=O)Nc1ccc(C)c(NC(=O)O*)c1` (repeat unit), the glass transition temperature turned out to be 61.00 °C.

In turn, `*CCCCCCOC(=O)NC1CCC(CC2CCC(NC(=O)OCCCCCCOc3ccc(CCc4ccc(O*)cc4)cc3)CC2)CC1` (repeat unit) gave a glass transition temperature of 40.30 °C.

The compound `*CCCCCCOC(=O)Nc1ccc(C)c(NC(=O)OCCCCCCOc2ccc(-c3ccc(O*)cc3)cc2)c1` (repeat unit) registered a glass transition temperature of 87.00 °C.

`*CCCCCOC(=O)Nc1ccc(C)c(NC(=O)O*)c1` (repeat unit) registered a glass transition temperature of 52.00 °C.

In turn, `*CCCCCOC(=O)c1ccccc1C(=O)[O][Cd][O]C(=O)c1ccccc1C(=O)OCCCCCOC(=O)Nc1ccc(C)c(NC(=O)O*)c1` (repeat unit) gave a glass transition temperature of 2.30 °C.

In turn, `*CCCCOC(=O)Nc1ccc(C)c(NC(=O)OCCCCn2c3ccccc3c3cc(/C=C(\C#N)C(=O)OCCCCCCOC(=O)/C(C#N)=C/c4ccc5c(c4)c4ccccc4n5*)ccc32)c1` (repeat unit) yielded a glass transition temperature of 117.00 °C.

Take `*CCCOC(=O)Nc1cc(NC(=O)O*)ccc1C` (repeat unit): the glass transition temperature turned out to be 6.00 °C.

`*CCN(CCOC(=O)NCC1(C)CC(NC(=O)O*)CC(C)(C)C1)c1ccc(/N=N/c2ccc(C#N)cc2)cc1` (repeat unit) displayed a glass transition temperature of 136.00 °C.

For `*CCN(CCOC(=O)Nc1ccc(C)c(NC(=O)O*)c1)c1ccc(-c2nc3ccc([N+](=O)[O-])cc3o2)cc1` (repeat unit), the glass transition temperature was 156.00 °C.

For the compound `*CCN(CCOC(=O)Nc1ccc(C)c(NC(=O)O*)c1)c1ccc(/N=N/c2ccc([N+](=O)[O-])cc2)cc1` (repeat unit), the glass transition temperature was determined as 144.00 °C.

Compound `*CCN(CCOC(=O)Nc1ccc(C)c(NC(=O)O*)c1)c1ccc(C(C#N)=C(C#N)C#N)cc1` (repeat unit) displayed a glass transition temperature of 125.00 °C.

For `*CCN(CCOC(=O)Nc1ccc(C)c(NC(=O)O*)c1)c1ccccc1` (repeat unit), the glass transition temperature was determined as 31.90 °C.

In turn, `*CCN(CCOC(=O)Nc1cccc(NC(=O)O*)c1C)c1ccc(/C=C/c2ccc([N+](=O)[O-])cc2)cc1` (repeat unit) returned a glass transition temperature of 123.00 °C.

In turn, `*CCOC(=O)NC1CCC(CC2CCC(NC(=O)OCCOc3ccc(C4(c5ccc(O*)cc5)c5ccccc5-c5ccccc54)cc3)CC2)CC1` (repeat unit) displayed a glass transition temperature of 140.00 °C.

Take `*CCOC(=O)NCC1(C)CC(NC(=O)O*)CC(C)(C)C1` (repeat unit): the glass transition temperature worked out at 84.00 °C.

In the case of `*CCOC(=O)Nc1ccc(C)c(NC(=O)OCCOc2cc([N+](=O)[O-])ccc2/N=N/c2cn(*)c3ccccc23)c1` (repeat unit), the glass transition temperature turned out to be 150.00 °C.

In the case of `*CCOC(=O)Nc1ccc(C)c(NC(=O)OCCOc2ccc(C3(c4ccc(O*)cc4)c4ccccc4-c4ccccc43)cc2)c1` (repeat unit), the glass transition temperature stood at 175.00 °C.

`*CCOc1ccc(OC(=O)c2ccc(C(=O)Oc3ccc(O*)cc3)c(OCCCCC)c2)cc1` (repeat unit) had a glass transition temperature of 95.00 °C.

As for `*NC(CCC(=O)OC)C(*)=O` (repeat unit), the glass transition temperature is 0.00 °C.

On to `*NC(CCC(=O)OCC)C(*)=O` (repeat unit), for which the glass transition temperature came to 0.00 °C.

Consider `*NC(CCC(=O)OCCCCC)C(*)=O` (repeat unit), for which the glass transition temperature was -20.00 °C.

On to `*NC(CCC(=O)OCCCCCC)C(*)=O` (repeat unit), for which the glass transition temperature was -25.00 °C.

On to `*NC(CCC(=O)OCCCCCCCC)C(*)=O` (repeat unit), for which the glass transition temperature is -59.50 °C.

With `*NC(CCC(=O)OCc1ccccc1)C(*)=O` (repeat unit), the glass transition temperature came out at 17.00 °C.

`*Nc1cc(NC(=O)Nc2ccc(CCc3ccccc3NC(*)=O)cc2)ccc1C` (repeat unit) yielded a glass transition temperature of 227.00 °C.

Turning to `*Nc1cc(NC(=O)c2cc(OCCCN(C)c3ccc(/N=N/c4ccc(S(C)(=O)=O)cc4)cc3)cc(C(*)=O)c2)cc(C(=O)OCCCN(C)c2ccc(/N=N/c3ccc(S(C)(=O)=O)cc3)cc2)c1` (repeat unit), the glass transition temperature came out at 168.00 °C.

Consider `*Nc1cc(NC(=O)c2cc(OCCN(C)c3ccc(C#N)cc3)cc(C(*)=O)c2)cc(C(=O)OCCN(C)c2ccc(C#N)cc2)c1` (repeat unit), for which the glass transition temperature stood at 167.00 °C.

`*Nc1cc(NC(=O)c2ccc(-c3ccc(C(*)=O)cc3)cc2)cc(C(=O)OCCOc2ccc(/C=C/C(=O)c3ccccc3)cc2)c1` (repeat unit) showed a glass transition temperature of 254.00 °C.

`*Nc1cc(NC(=O)c2ccc(C(*)=O)cc2)cc(C(=O)OCCOC(=O)/C=C/c2ccc(N(C)C)cc2)c1` (repeat unit) registered a glass transition temperature of 198.00 °C.

On to `*Nc1cc(NC(=O)c2ccc3cc(C(*)=O)ccc3c2)cc(C(=O)OCCOc2ccc(/C=C/C(=O)c3ccccc3)cc2)c1` (repeat unit), for which the glass transition temperature is 247.00 °C.

In turn, `*Nc1cc(NC(=O)c2cccc(C(*)=O)c2)cc(C(=O)OCCOC(=O)/C=C/c2ccc(N(C)C)cc2)c1` (repeat unit) had a glass transition temperature of 186.00 °C.

As to `*Nc1cc(NC(=O)c2cccc(C(*)=O)c2)cc(C(=O)OCCOc2ccc(/C=C/C(=O)c3ccccc3)cc2)c1` (repeat unit), the glass transition temperature was determined as 216.00 °C.

With `*Nc1ccc(Cc2ccc(NC(=O)NCCCCCCCCCCCCCCCCCCNC(*)=O)cc2)cc1` (repeat unit), the glass transition temperature stood at 48.00 °C.

`*Nc1ccc(NC(=O)c2ccc(NC(=O)CCCCCCCCC(=O)Nc3ccc(C(*)=O)cc3)cc2)cc1C(=O)OCCCCCCCCCCCC` (repeat unit) returned a glass transition temperature of 228.50 °C.

Regarding `*Nc1ccc(NC(=O)c2ccc(NC(=O)CCCCCCCCC(=O)Nc3ccc(C(*)=O)cc3)cc2)cc1C(=O)OCCCCCCCCCCCCCC` (repeat unit), the glass transition temperature was found to be 225.00 °C.

`*Nc1ccc(NC(=O)c2ccc(NC(=O)CCCCCCCCCCC(=O)Nc3ccc(C(*)=O)cc3)cc2)cc1C(=O)OCCCCCCCCCCCCCC` (repeat unit) gave a glass transition temperature of 199.50 °C.

Compound `*Nc1ccc(NC(=O)c2ccc(NC(=O)CCCCCCCCCCC(=O)Nc3ccc(C(*)=O)cc3)cc2)cc1C(=O)OCCCCCCCCCCCCCCCCCC` (repeat unit) came in with a glass transition temperature of 196.50 °C.

Compound `*Nc1ccc(NC(=O)c2ccc(NC(=O)CCCCCCCCCCCCC(=O)Nc3ccc(C(*)=O)cc3)cc2)cc1C(=O)OCCCCCCCCCCCCCCCC` (repeat unit) gave a glass transition temperature of 250.00 °C.

`*OC(=O)C(C)NC(=O)CCCCCCCCC(=O)NC(C)C(=O)OC1COC2C(*)COC12` (repeat unit) registered a glass transition temperature of 57.00 °C.

Compound `*OC(=O)C(CCSC)NC(=O)CCCCCCCCC(=O)NC(CCSC)C(=O)OC1COC2C(*)COC12` (repeat unit) displayed a glass transition temperature of 61.00 °C.

The compound `*OC(=O)NC1CCC(CC2CCC(NC(=O)OC3CC4CC(*)CC(C3)O4)CC2)CC1` (repeat unit) yielded a glass transition temperature of 225.00 °C.

With `*OC(=O)Nc1ccc(C)c(NC(=O)OC2CCN(c3ccc(/C=C/C4=CC(=C(C#N)C#N)C=C(/C=C/c5ccc(N6CCC(*)CC6)s5)O4)s3)CC2)c1` (repeat unit), the glass transition temperature stood at 212.00 °C.

`*Oc1ccc(/N=C/CCC/C=N/c2ccc(OC(=O)NC3CC(C)(C)CC(C)(CNC(*)=O)C3)cc2)cc1` (repeat unit) gave a glass transition temperature of 66.00 °C.

`*Oc1ccc(C(=O)Nc2cc(C(c3ccc(C)c(NC(=O)c4ccc(OC(=O)c5cccc(C(*)=O)c5)cc4)c3)(C(F)(F)F)C(F)(F)F)ccc2C)cc1` (repeat unit) came in with a glass transition temperature of 214.00 °C.

In turn, `*Oc1ccc(C(=O)Nc2cc(SCCC#N)c(NC(=O)c3ccc(*)cc3)cc2SCCC#N)cc1` (repeat unit) displayed a glass transition temperature of 158.00 °C.

Regarding `*Oc1ccc(OC(=O)c2cc(OCCCCCCCCCCCC)c(C(*)=O)cc2OCCCCCCCCCCCC)cc1-c1ccccc1` (repeat unit), the glass transition temperature amounted to 96.00 °C.

In the case of `*Oc1ccc(Oc2ccc(OC(=O)c3cc(OCCCCC)cc(C(*)=O)c3)cc2)cc1` (repeat unit), the glass transition temperature was determined as 126.00 °C.

The compound `*Oc1ccccc1C(=O)OC(=O)c1ccccc1OC(=O)C(C)C(C)C(*)=O` (repeat unit) yielded a glass transition temperature of 45.00 °C.

Compound `*c1ccc(C(=O)Nc2ccc(-n3c(=O)c4cc5c(=O)n(*)c(=O)c5cc4c3=O)cc2C(=O)OCC)cc1` (repeat unit) displayed a glass transition temperature of 340.00 °C.

For the compound `*c1ccc(OC(=O)Nc2ccc(-c3ccc(NC(=O)Oc4ccc(-c5nc(-c6ccc(-c7nc(-c8ccc([N+](=O)[O-])cc8)c(-c8ccc([N+](=O)[O-])cc8)[nH]7)cc6)[nH]c5*)cc4)cc3OC)c(OC)c2)cc1` (repeat unit), the glass transition temperature is 223.00 °C.

`*c1ccc(OC(=O)Nc2ccc(-c3ccc(NC(=O)Oc4ccc(-c5nc(-c6ccc([N+](=O)[O-])cc6)[nH]c5*)cc4)cc3OC)c(OC)c2)cc1` (repeat unit) had a glass transition temperature of 202.00 °C.
